Source: article PMC11638278, “Ascorbate: a forgotten component in the cytotoxicity of Cu(II) ATCUN peptide complexes” (Journal of Biological Inorganic Chemistry, 2024)

Tested on: AGS cells (gastric adenocarcinoma)
Assay: MTT cell viability assay on AGS cells
Format: cell-based
Settings: AscH− 100 µM alone (negative control), 48 h
Protocol: The complexes 1–3, Cu-GGH, CuCl2 and the peptides a-c, GGH alone were tested on three different cancer cell lines towards their cytotoxic activity: HeLa cells (cervical adenocarcinoma), AGS and NCI-N87 cells (both gastric adenocarcinoma). The cells were grown and treated with compounds in RPMI Medium 1640 (1×) supplemented with 10% fetal calf serum in a humidified incubator with 5% CO2 at 37 °C. MTT cell viability assays were carried out at two concentrations (100 and 250 µM) at least in duplicate (in AGS cells additionally in two independent experiments). The Annexin V-FITC apoptosis assay was carried out at a compound concentration of 500 µM in duplicate in two independent experiments.
For the MTT cell viability assay (Sigma Aldrich), cells were seeded at 10 000 (HeLa and AGS) and 20 000 (NCI-N87) cells/well in 96-well plates and left to settle for 24 h. […] Quantification of the formazan was ensured by a Spectramax M5 (Molecular Devices) microplate reader at an absorbance of 470 nm to determine the percentage of cell-growth inhibition of each sample (with compound) relative to a negative control (no compound). […]

SMILES: O=C1O[C@H]([C@@H](O)CO)C(O)=C1O [AscH^−, sodium ascorbate]
- cytotoxicity of the additive alone: does not show significant cytotoxicity
